MIC, MIC50 and MFC data for nine compounds are collected here from ChEMBL document CHEMBL4311957, “Recent advances in natural antifungal flavonoids and their derivatives” (Bioorg Med Chem Lett, 2019).

In brackets after ≈: the same amount, converted by molar mass.

In assay [1] the test system is Candida albicans. The experiment in a line: Antifungal activity against Candida albicans NBRC 1385 by microdilution method. Type of assay: functional. (In general: In broth dilution the organism is exposed to a series of concentrations in liquid medium.)
Assay [2] deals with Candida albicans. The experiment in a line: Antifungal activity against Candida albicans 498 by microdilution method. Type of assay: functional.
Assay [3] concerns Trichophyton mentagrophytes. The experiment in a line: Antifungal activity against Trichophyton mentagrophytes IFM 46027 by microdilution method. It is filed as functional.
The test system of assay [4] is Candida albicans. The experiment in a line: Antifungal activity against Candida albicans ATCC 10231 by microdilution method. Type of assay: functional.
Assay [5] relates to Candida parapsilosis. The experiment in a line: Antifungal activity against Candida parapsilosis 96 by microdilution method. Type of assay: functional. To be noted: Lodderomyces parapsilosis.
Assay [6] relates to Trichophyton rubrum. Description: Antifungal activity against Trichophyton rubrum NBRC 5467 by microdilution method. Type of assay: functional.
The subject of assay [7] is Candida albicans. The experiment in a line: Antifungal activity against Candida albicans 53 by microdilution method. It is filed as functional.
In assay [8] the test system is Nakaseomyces glabratus. Description: Antifungal activity against Candida glabrata ATCC 90030. It is filed as functional.
Assay [9] relates to Pichia kudriavzevii. Description: Antifungal activity against Candida krusei CK25. It is filed as functional.
Assay [10] concerns Pichia kudriavzevii. Description: Antifungal activity against Candida krusei ATCC 6258. Type of assay: functional.
In assay [11] the test system is Candida albicans. Description: Antifungal activity against Candida albicans 501 by microdilution method. Type of assay: functional.
The test system of assay [12] is Candida parapsilosis. The experiment in a line: Antifungal activity against Candida parapsilosis ATCC 22014. Type of assay: functional. To be noted: Lodderomyces parapsilosis.
The next assay concerns Candida tropicalis. The experiment in a line: Antifungal activity against Candida tropicalis 166 by microdilution method. It is filed as functional.
For assay [13], the system named is Nakaseomyces glabratus. Description: Antifungal activity against Candida glabrata 510 by microdilution method. It is filed as functional.
Assay [14] relates to Nakaseomyces glabratus. The experiment in a line: Antifungal activity against Candida glabrata 531 by microdilution method. Type of assay: functional.
In assay [15] the test system is Nakaseomyces glabratus. Description: Antifungal activity against Candida glabrata 482 by microdilution method. Type of assay: functional.
The test system of assay [16] is Candida parapsilosis. The experiment in a line: Antifungal activity against Candida parapsilosis 90/2224. It is filed as functional. To be noted: Lodderomyces parapsilosis.
The subject of assay [17] is Nakaseomyces glabratus. The experiment in a line: Antifungal activity against Candida glabrata 493 by microdilution method. Type of assay: functional.
For assay [18], the system named is Nakaseomyces glabratus. The experiment in a line: Antifungal activity against Candida glabrata 507 by microdilution method. Type of assay: functional.
The test system of assay [19] is Nakaseomyces glabratus. The experiment in a line: Antifungal activity against Candida glabrata WT-5. Type of assay: functional.
The test system of assay [20] is Nakaseomyces glabratus. The experiment in a line: Antifungal activity against Candida glabrata 587 by microdilution method. It is filed as functional.
The next assay has as its system Aspergillus fumigatus. Description: Antifungal activity against Aspergillus fumigatus NBRC 4400 by microdilution method. Type of assay: functional.
The test system of assay [21] is Pichia kudriavzevii. Description: Antifungal activity against Candida krusei 168 by microdilution method. Type of assay: functional.
Assay [22] relates to Trichophyton rubrum. Description: Antifungal activity against Trichophyton rubrum ATCC MYA3108 by CLSI-based microdilution method. Type of assay: functional.
The test system of assay [23] is Trichophyton rubrum. Description: Antifungal activity against Trichophyton rubrum deltaTruMDR2 by CLSI-based microdilution method. It is filed as functional.
Assay [24] concerns Candida albicans. The experiment in a line: Antifungal activity against Candida albicans. Type of assay: functional, organism-based.
The next assay concerns Cryptococcus neoformans. The experiment in a line: Antifungal activity against Cryptococcus neoformans. Type of assay: functional.
In assay [25] the test system is Trichophyton rubrum. The experiment in a line: Antifungal activity against Trichophyton rubrum. It is filed as functional.

Broadly, the MIC is the least concentration at which growth counts as inhibited. The low end stands for a more susceptible organism, the high end for a less susceptible organism. One may read the MIC50 as the lowest concentration that inhibits either 50% of growth or 50% of the strains tested, depending on the study. Lower therefore signals greater potency. For the compound `O=c1cc(-c2ccccc2)oc2ccccc12` [FLAVONE], the minimum inhibitory concentration (MIC) in the assay on Candida albicans [1] was 30 µM (≈ 6.67 µg/mL); in the assay on Candida albicans [2] it was > 83 µg/mL; in assay [3], 60 µM; with Candida albicans [4] it was > 83 µg/mL; against Candida parapsilosis [5], > 83 µg/mL; with Trichophyton rubrum [6] it was 120 µM. Besides, the MIC in the assay on Candida albicans [7] was > 83 µg/mL; in the assay on Nakaseomyces glabratus [8] it was 52.7 µg/mL (≈ 237 µM); in the assay on Pichia kudriavzevii [9], 2.7 µg/mL (≈ 12.1 µM); in the assay with Pichia kudriavzevii [10] it was 2.7 µg/mL (≈ 12.1 µM); in the assay on Candida albicans [11], > 83 µg/mL; in the assay on Candida parapsilosis [12] it was 5.4 µg/mL (≈ 24.3 µM). The MIC is > 83 µg/mL against Candida tropicalis; 62.5 µg/mL (≈ 281 µM) against Nakaseomyces glabratus [13]; 62.5 µg/mL (≈ 281 µM) with Nakaseomyces glabratus [14]; 62.5 µg/mL (≈ 281 µM) against Nakaseomyces glabratus [15]; 5.4 µg/mL (≈ 24.3 µM) against Candida parapsilosis [16]; 62.5 µg/mL (≈ 281 µM) with Nakaseomyces glabratus [17]. In addition, the MIC was 62.5 µg/mL (≈ 281 µM) against Nakaseomyces glabratus [18], 52.7 µg/mL (≈ 237 µM) with Nakaseomyces glabratus [19], 62.5 µg/mL (≈ 281 µM) against Nakaseomyces glabratus [20] and 230 µM against Aspergillus fumigatus. The MIC50 in the assay on Candida parapsilosis [5] and against Candida tropicalis was 13 to 104 µg/mL (≈ 58.5 to 468 µM) each time.

For `O=c1c(O)c(-c2ccccc2)oc2ccccc12` [FLAVONOL], the MIC in the assay with Candida albicans [2], against Candida albicans [4], against Candida parapsilosis [5], with Candida albicans [7], in the assay with Candida albicans [11] and against Candida tropicalis was > 83 µg/mL in each case. Further, the MIC in the assay with Nakaseomyces glabratus [13], with Nakaseomyces glabratus [14], in the assay on Nakaseomyces glabratus [15], in the assay with Nakaseomyces glabratus [17], against Nakaseomyces glabratus [18] and with Nakaseomyces glabratus [20] was 3.9 to 15.6 µg/mL (≈ 16.4 to 65.5 µM) in each case. In addition, in the assay on Pichia kudriavzevii [21], the MIC was > 83 µg/mL.

In the case of `O=c1c(-c2ccc(O)cc2)coc2cc(O)cc(O)c12` [GENISTEIN], the MIC in the assay on Trichophyton rubrum [22] and in the assay on Trichophyton rubrum [23] was > 1000 µg/mL throughout.

Regarding `CC(C)=CCc1c(O)ccc(C(=O)/C=C/c2ccc(O)cc2)c1O` [ISOBAVACHALCONE], the MIC50 with Candida albicans [24] stood at 3 µg/mL (≈ 9.25 µM); in the assay on Cryptococcus neoformans it was 7 µg/mL (≈ 21.6 µM).

Regarding `O=c1c(O)c(-c2ccc(O)cc2)oc2cc(O)cc(O)c12` [KAEMPFEROL], the MIC with Candida albicans [24] was 256 to 512 µg/mL; with Candida albicans [2], > 83 µg/mL; in the assay with Candida albicans [4], > 83 µg/mL; in the assay with Candida parapsilosis [5] it was > 83 µg/mL; against Candida albicans [7] it was > 83 µg/mL; with Candida albicans [11], > 83 µg/mL. Moreover, the MIC against Candida tropicalis is > 83 µg/mL; against Nakaseomyces glabratus [13], 31.2 µg/mL (≈ 109 µM); against Nakaseomyces glabratus [14], 31.2 µg/mL (≈ 109 µM); in the assay with Nakaseomyces glabratus [15] it was 31.2 µg/mL (≈ 109 µM); in the assay with Nakaseomyces glabratus [17] it was 31.2 µg/mL (≈ 109 µM); with Nakaseomyces glabratus [18], 31.2 µg/mL (≈ 109 µM). Also, the minimum inhibitory concentration (MIC) in the assay with Nakaseomyces glabratus [20] was 31.2 µg/mL (≈ 109 µM); with Pichia kudriavzevii [21], > 83 µg/mL.

As a reminder, the MFC is the lowest tested concentration that kills the fungus rather than only halting it. Low readings indicate greater fungicidal potency, high ones weaker fungicidal potency. In the assay with Candida albicans [24], `C=CC(C)(C)c1cc(/C=C/C(=O)c2ccc(O)cc2)c(OC)cc1O` [LICOAGROCHACONE A] came in with a minimal fungicidal concentration (MFC) of 150 µM (≈ 50.8 µg/mL) and an MIC of 62.4 to 150 µM. Besides, the minimum inhibitory concentration (MIC) with Trichophyton rubrum [25] was 11.5 µM.

Take `O=c1cc(-c2ccc(O)c(O)c2)oc2cc(O)cc(O)c12` [LUTEOLIN]: the MIC was 30 µM (≈ 8.59 µg/mL) with Candida albicans [1]; > 83 µg/mL against Candida albicans [2]; 60 µM in assay [3]; > 83 µg/mL in the assay with Candida albicans [4]; > 83 µg/mL in the assay with Candida parapsilosis [5]; 120 µM with Trichophyton rubrum [6]. Besides, the MIC in the assay on Candida albicans [7] was > 83 µg/mL; with Nakaseomyces glabratus [8] it was 52.7 µg/mL (≈ 184 µM); against Pichia kudriavzevii [9], 2.7 µg/mL (≈ 9.43 µM); with Pichia kudriavzevii [10], 2.7 µg/mL (≈ 9.43 µM); against Candida albicans [11] it was > 83 µg/mL; against Candida parapsilosis [12], 5.4 µg/mL (≈ 18.9 µM). Moreover, the minimum inhibitory concentration (MIC) in the assay on Candida tropicalis was > 83 µg/mL; in the assay with Nakaseomyces glabratus [13], 3.9 to 7.8 µg/mL (≈ 13.6 to 27.2 µM); with Nakaseomyces glabratus [14], 3.9 to 7.8 µg/mL (≈ 13.6 to 27.2 µM); in the assay on Nakaseomyces glabratus [15], 3.9 to 7.8 µg/mL (≈ 13.6 to 27.2 µM); in the assay on Candida parapsilosis [16], 5.4 µg/mL (≈ 18.9 µM); with Nakaseomyces glabratus [17] it was 3.9 to 7.8 µg/mL (≈ 13.6 to 27.2 µM). In addition, the MIC was 3.9 to 7.8 µg/mL (≈ 13.6 to 27.2 µM) against Nakaseomyces glabratus [18]; 52.7 µg/mL (≈ 184 µM) against Nakaseomyces glabratus [19]; 3.9 to 7.8 µg/mL (≈ 13.6 to 27.2 µM) with Nakaseomyces glabratus [20]; 230 µM in the assay on Aspergillus fumigatus; 250 µg/mL in the assay on Trichophyton rubrum [25]. Also, the MIC50 in the assay with Candida parapsilosis [5] and in the assay on Candida tropicalis was 13 to 104 µg/mL (≈ 45.4 to 363 µM) each time.

As for `C[C@@H]1O[C@@H](Oc2c(-c3ccc(O)c(O)c3)oc3cc(O)cc(O)c3c2=O)[C@H](O)[C@H](O)[C@H]1O` [QUERCITRIN], the minimum inhibitory concentration (MIC) against Candida albicans [2], in the assay on Candida albicans [4], in the assay on Candida parapsilosis [5], in the assay on Candida albicans [7], in the assay with Candida albicans [11] and in the assay with Candida tropicalis was > 83 µg/mL each time. Besides, the MIC against Nakaseomyces glabratus [13], against Nakaseomyces glabratus [14], with Nakaseomyces glabratus [15], with Nakaseomyces glabratus [17], in the assay with Nakaseomyces glabratus [18] and against Nakaseomyces glabratus [20] was 7.8 to 62.5 µg/mL (≈ 17.4 to 139 µM) in each case. In the assay on Pichia kudriavzevii [21], the MIC was > 83 µg/mL.

As for `COc1c(O)cc(O)c2c(=O)cc(-c3ccccc3)oc12` [WOGONIN], the MIC in assay [3] was found to be 60 µg/mL; in the assay on Trichophyton rubrum [6], 60 µg/mL; in the assay with Aspergillus fumigatus, 230 µg/mL.
